Where two headings read alike, the source gives them in different places.
Biological target: T1, NIK (Homo sapiens, UniProt Q99558)
T1 construct: Both assays utilize a truncated form of NIK containing only the catalytic domain; made in house; host or cells: baculovirus expression system (insect cells implied)
Assay: homogenous time resolved fluorescence (HTRF) assay for NIK Ki measurement
Type: biochemical

[1] = truncated NIK (catalytic domain only), autophosphorylation, 10 nM enzyme, 20, 100, 200 or 500 μM ATP, room temperature, 2 hours, read-out: Ki activity in the homogenous time resolved fluorescence (HTRF) assay for NIK

T1 sequence (Q99558 400-655 limits assumed): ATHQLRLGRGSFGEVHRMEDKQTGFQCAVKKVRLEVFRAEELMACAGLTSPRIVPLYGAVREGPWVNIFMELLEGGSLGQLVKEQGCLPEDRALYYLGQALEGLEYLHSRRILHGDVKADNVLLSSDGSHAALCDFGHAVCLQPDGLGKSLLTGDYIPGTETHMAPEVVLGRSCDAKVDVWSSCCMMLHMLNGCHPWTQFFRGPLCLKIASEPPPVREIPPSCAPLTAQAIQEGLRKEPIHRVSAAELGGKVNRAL

| Compound | Ki [1] [nM] | Ki [nM] |
| --- | --- | --- |
| Cc1ccsc1C(C)(O)C#Cc1ccc2c(c1)N(c1ccnc(N)n1)CC2 (centres unmarked) [Example 278, 4-(1-(2-Amino-4-pyrimidinyl)-2,3-dihydro-1H-indol-6-yl)-2-(3-methyl-2-thienyl)-3-butyn-2-ol] | < 1000 |  |
| Cc1cc(C(C)(O)C#Cc2ccc3c(c2)N(c2ccnc(N)n2)CC3)c(C)o1 (centres unmarked) [Example 279, 4-(1-(2-Amino-4-pyrimidinyl)-2,3-dihydro-1H-indol-6-yl)-2-(2,5-dimethyl-3-furanyl)-3-Butyn-2-ol] | 1000 to 30000 |  |
| Cc1ccc(C(C)(O)C#Cc2ccc3c(c2)N(c2ccnc(N)n2)CC3)s1 (centres unmarked) [Example 280, 4-(1-(2-Amino-4-pyrimidinyl)-2,3-dihydro-1H-indol-6-yl)-2-(5-methyl-2-thienyl)-3-butyn-2-ol] | < 1000 |  |
| CC(O)(C#Cc1ccc2c(c1)N(c1ccnc(N)n1)CC2)c1ccc(Cl)s1 (centres unmarked) [Example 281, 4-(1-(2-Amino-4-pyrimidinyl)-2,3-dihydro-1H-indol-6-yl)-2-(5-chloro-2-thienyl)-3-butyn-2-ol] | < 1000 |  |
| CN1CCC2(CC1)CN(c1nc(N)ncc1Cl)c1cc(C#CC(C)(O)c3nccs3)ccc12 (centres unmarked) [Example 282, 4-(1-(2-Amino-5-chloro-4-pyrimidinyl)-1′-methyl-1,2-dihydrospiro[indole-3,4′-piperidin]-6-yl)-2-(1,3-thiazol-2-yl)-3-butyn-2-ol] | < 1000 |  |
| Cc1nc(C)c(C(C)(O)C#Cc2ccc3c(c2)N(c2ccnc(N)n2)CC3)s1 (centres unmarked) [Example 283, 4-(1-(2-Amino-4-pyrimidinyl)-2,3-dihydro-1H-indol-6-yl)-2-(2,4-dimethyl-1,3-thiazol-5-yl)-3-butyn-2-ol] | 1000 to 30000 |  |
| CC(O)(C#Cc1ccc2c(c1)N(c1ccnc(N)n1)CC2)c1sccc1Cl (centres unmarked) [Example 284, 4-(1-(2-Amino-4-pyrimidinyl)-2,3-dihydro-1H-indol-6-yl)-2-(3-chloro-2-thienyl)-3-butyn-2-ol] | < 1000 |  |
| Cc1nc(C(C)(O)C#Cc2ccc3c(c2)N(c2ccnc(N)n2)CC3)sc1C (centres unmarked) [Example 285, 4-(1-(2-Amino-4-pyrimidinyl)-2,3-dihydro-1H-indol-6-yl)-2-(4,5-dimethyl-1,3-thiazol-2-yl)-3-Butyn-2-ol] | 1000 to 30000 |  |
| Cc1csc(C(C)(O)C#Cc2ccc3c(c2)N(c2ccnc(N)n2)CC3)n1 (centres unmarked) [Example 287, 4-(1-(2-Amino-4-pyrimidinyl)-2,3-dihydro-1H-indol-6-yl)-2-(4-methyl-1,3-thiazol-2-yl)-3-Butyn-2-ol] | 1000 to 30000 |  |
| Cc1nc(C(C)(O)C#Cc2ccc3c(c2)N(c2ccnc(N)n2)CC3)cs1 (centres unmarked) [Example 288, 4-(1-(2-Amino-4-pyrimidinyl)-2,3-dihydro-1H-indol-6-yl)-2-(2-methyl-1,3-thiazol-4-yl)-3-butyn-2-ol] | < 1000 |  |
| Cc1cnc(C(C)(O)C#Cc2ccc3c(c2)N(c2ccnc(N)n2)CC3)s1 (centres unmarked) [Example 289, 4-(1-(2-Amino-4-pyrimidinyl)-2,3-dihydro-1H-indol-6-yl)-2-(5-methyl-1,3-thiazol-2-yl)-3-Butyn-2-ol] | < 1000 |  |
| CC(O)(C#Cc1ccc2c(c1)N(c1ccnc(N)n1)CC2)c1cccnc1 (centres unmarked) [Example 290, 4-(1-(2-Amino-4-pyrimidinyl)-2,3-dihydro-1H-indol-6-yl)-2-(3-pyridinyl)-3-butyn-2-ol] | < 1000 |  |
| CC(O)(C#Cc1ccc2c(c1)N(c1ccnc(N)n1)CC2)c1ncco1 (centres unmarked) [Example 291, 4-(1-(2-amino-4-pyrimidinyl)-2,3-dihydro-1H-indol-6-yl)-2-(1,3-oxazol-2-yl)-3-butyn-2-ol] | < 1000 |  |
| CC(O)(C#Cc1ccc2ncc(-c3ccnc(N)n3)n2c1)c1nccs1 (centres unmarked) [Example 292, 4-(3-(2-Amino-4-pyrimidinyl)imidazo[1,2-a]pyridin-6-yl)-2-(1,3-thiazol-2-yl)-3-butyn-2-ol] | < 1000 |  |
| CC(O)(C#Cc1ccc2c(c1)N(c1ccnc(N)n1)CC2)C1CCCC1 (centres unmarked) [Example 293, 4-(1-(2-Amino-4-pyrimidinyl)-2,3-dihydro-1H-indol-6-yl)-2-cyclopentyl-3-butyn-2-ol] | < 1000 |  |
| C[C@@](O)(C#Cc1ccc2c(c1)N(c1ccnc(N)n1)CC2)c1nccs1 [Example 294, (2R)-4-(1-(2-amino-4-pyrimidinyl)-2,3-dihydro-1H-indol-6-yl)-2-(1,3-thiazol-2-yl)-3-Butyn-2-ol] | < 1000 |  |
| Cc1[nH]c2ccc(C#CC(C)(O)c3nccs3)cc2c1-c1ccncc1 (centres unmarked) [Example 295, 4-(2-Methyl-3-(4-pyridinyl)-1H-indol-5-yl)-2-(1,3-thiazol-2-yl)-3-butyn-2-ol] | < 1000 |  |
| C[C@@](O)(C#Cc1ccc2ncc(-c3nc(N)ncc3Cl)n2c1)c1nccs1 [Example 296, (2R)-4-(3-(2-amino-5-chloro-4-pyrimidinyl)imidazo[1,2-a]pyridin-6-yl)-2-(1,3-thiazol-2-yl)-3-butyn-2-ol] | < 1000 |  |
| C[C@](O)(C#Cc1ccc2c(c1)N(c1ccnc(N)n1)CC2)c1nccs1 [Example 297, (2S)-4-(1-(2-amino-4-pyrimidinyl)-2,3-dihydro-1H-indol-6-yl)-2-(1,3-thiazol-2-yl)-3-butyn-2-ol] | < 1000 |  |

| Compound | Ki [1] [nM] | Ki [nM] |
| --- | --- | --- |
| Nc1ncc(Cl)c(-c2cnc3ccc(C#CC4(O)CCCC4)cn23)n1 [Example 298, 1-((3-(2-amino-5-chloro-4-pyrimidinyl)imidazo[1,2-a]pyridin-6-yl)ethynyl)-cyclopentanol] | < 1000 |  |
| CC(O)(C#Cc1ccc2ccn(-c3ccncc3)c2c1)c1nccs1 (centres unmarked) [Example 299, 4-(1-(4-Pyridinyl)-1H-indol-6-yl)-2-(1,3-thiazol-2-yl)-3-butyn-2-ol] | < 1000 |  |
| Cc1cnc(C(C)(O)C#Cc2ccc3ncc(-c4nc(N)ncc4Cl)n3c2)s1 (centres unmarked) [Example 300, 4-(3-(2-Amino-5-chloro-4-pyrimidinyl)imidazo[1,2-a]pyridin-6-yl)-2-(5-methyl-1,3-thiazol-2-yl)-3-butyn-2-ol] | < 1000 |  |
| Cc1cnc(C(C)(O)C#Cc2ccc3c(c2)N(c2nc(N)ncc2Cl)CC32CN(C)C2)s1 (centres unmarked) [Example 301, 4-(1′-(2-Amino-5-chloro-4-pyrimidinyl)-1-methyl-1′,2′-dihydrospiro[azetidine-3,3′-indol]-6′-yl)-2-(5-methyl-1,3-thiazol-2-yl)-3-butyn-2-ol] | < 1000 |  |
| CC(O)(C#Cc1ccc2ncc(-c3ccncn3)n2c1)c1nccs1 (centres unmarked) [Example 302, 4-(3-(4-pyrimidinyl)imidazo[1,2-a]pyridin-6-yl)-2-(1,3-thiazol-2-yl)-3-butyn-2-ol] | < 1000 |  |
| Cc1cnc(C(C)(O)C#Cc2ccc3c(c2)N(c2nc(N)ncc2Cl)CC3(C)C)s1 (centres unmarked) [Example 303, 4-(1-(2-Amino-5-chloro-4-pyrimidinyl)-3,3-dimethyl-2,3-dihydro-1H-indol-6-yl)-2-(5-methyl-1,3-thiazol-2-yl)-3-butyn-2-ol] | < 1000 |  |
| CC(O)(C#Cc1ccc2c(c1)N(c1nc(N)ncc1Cl)CC2(C)C)c1ccccn1 (centres unmarked) [Example 304, 4-(1-(2-Amino-5-chloro-4-pyrimidinyl)-3,3-dimethyl-2,3-dihydro-1H-indol-6-yl)-2-(2-pyridinyl)-3-Butyn-2-ol] | < 1000 |  |
| CC(O)(C#Cc1ccc2c(c1)N(c1nc(N)ncc1Cl)CC2(C)C)c1ncco1 (centres unmarked) [Example 305, 4-(1-(2-Amino-5-chloro-4-pyrimidinyl)-3,3-dimethyl-2,3-dihydro-1H-indol-6-yl)-2-(1,3-oxazol-2-yl)-3-Butyn-2-ol] | < 1000 |  |
| CC1(C)CN(c2ccncc2)c2cc(C#C[C@@](C)(O)c3nccs3)ccc21 [Example 306, (2R)-4-(3,3-dimethyl-1-(4-pyridinyl)-2,3-dihydro-1H-indol-6-yl)-2-(1,3-thiazol-2-yl)-3-Butyn-2-ol] | < 1000 |  |
| CC(O)(C#Cc1ccc2c(c1)N(c1ccncc1)CC2(C)C)c1ncco1 (centres unmarked) [Example 307, 4-(3,3-Dimethyl-1-(4-pyridinyl)-2,3-dihydro-1H-indol-6-yl)-2-(1,3-oxazol-2-yl)-3-butyn-2-ol] | < 1000 |  |
| CC(O)(C#Cc1ccc2c(c1)N(c1nc(N)ncc1Cl)CC2)c1ccccn1 (centres unmarked) [Example 308, 4-(1-(2-Amino-5-chloro-4-pyrimidinyl)-2,3-dihydro-1H-indol-6-yl)-2-(2-pyridinyl)-3-butyn-2-ol] | < 1000 |  |
| CC(O)(C#Cc1ccc2ncc(-c3nc(N)ncc3Cl)n2c1)c1ncco1 (centres unmarked) [Example 309, 4-(3-(2-Amino-5-chloro-4-pyrimidinyl)imidazo[1,2-a]pyridin-6-yl)-2-(1,3-oxazol-2-yl)-3-Butyn-2-ol] | < 1000 |  |
| CC(O)(C#Cc1ccc2c(c1)N(c1ccncc1)CC2(C)C)c1ccccn1 (centres unmarked) [Example 310, 4-(3,3-Dimethyl-1-(4-pyridinyl)-2,3-dihydro-1H-indol-6-yl)-2-(2-pyridinyl)-3-butyn-2-ol] | < 1000 |  |
| Cc1cnc(C(C)(O)C#Cc2ccc3c(c2)N(c2ccncc2)CC3(C)C)s1 (centres unmarked) [Example 311, 4-(3,3-Dimethyl-1-(4-pyridinyl)-2,3-dihydro-1H-indol-6-yl)-2-(5-methyl-1,3-thiazol-2-yl)-3-butyn-2-ol] | < 1000 |  |
| CC(O)(C#Cc1ccc2c(c1)N(c1ncncc1Cl)CC2(C)C)c1nccs1 (centres unmarked) [Example 312, 4-(1-(5-chloro-4-pyrimidinyl)-3,3-dimethyl-2,3-dihydro-1H-indol-6-yl)-2-(1,3-thiazol-2-yl)-3-butyn-2-ol] | < 1000 |  |
| CC(O)(C#Cc1ccc2c(c1)N(c1ccncc1Cl)CC2(C)C)c1nccs1 (centres unmarked) [Example 313, 4-(1-(3-Chloro-4-pyridinyl)-3,3-dimethyl-2,3-dihydro-1H-indol-6-yl)-2-(1,3-thiazol-2-yl)-3-butyn-2-ol] | 1000 to 30000 |  |
| CC(O)(C#Cc1ccc2c(c1)N(c1ccncc1Cl)CC2(C)C)c1ncco1 (centres unmarked) [Example 314, 4-(1-(3-chloro-4-pyridinyl)-3,3-dimethyl-2,3-dihydro-1H-indol-6-yl)-2-(1,3-oxazol-2-yl)-3-butyn-2-ol] | < 1000 |  |
| CC(O)(C#Cc1cccc(Oc2nc(N)ncc2Cl)c1)c1nccs1 (centres unmarked) [Example 315, 4-(3-((2-amino-5-chloro-4-pyrimidinyl)oxy)phenyl)-2-(1,3-thiazol-2-yl)-3-butyn-2-ol] | < 1000 |  |
| Cc1cnc(C(C)(O)C#Cc2ccc3c(c2)N(c2ccnc(N)n2)CC3)o1 (centres unmarked) [Example 316, 4-(1-(2-Amino-4-pyrimidinyl)-2,3-dihydro-1H-indol-6-yl)-2-(5-methyl-1,3-oxazol-2-yl)-3-Butyn-2-ol] |  | < 1000 |
